According to the supplement of paper PMC10307832:

Key:
Assay in all cases: relative viability (nuclei count vs DMSO), 5 days (fraction); higher = more cells survive
[1] = compound: C(C(=O)C(=O)O)Br [Bromopyruvate] + COc1cc2c(Oc3ccc(NC(=O)C4(C(=O)Nc5ccc(F)cc5)CC4)cc3F)ccnc2cc1OCCCN1CCOCC1 [Foretinib] (partner 0.25 µM)
Method in brief: (§1)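 Lung cancer cell lines, seeded in 1536-well plates, were treated the following day by pin tool with a single drug or with five library-drug doses (not always all listed) in √10 steps on top of a fixed anchor-drug dose. Cells were fixed and nuclei stained in one step after 5 days, and nuclei were counted. Relative viability is the nuclei count for treated wells divided by that for vehicle wells, reported as medians of duplicate plates.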

[2] = compound: CC(O)(CS(=O)(=O)c1ccc(F)cc1)C(=O)Nc1ccc(C#N)c(C(F)(F)F)c1 [Bicalutamide] + CS(=O)(=O)N1CCN(Cc2cc3nc(-c4cccc5[nH]ncc45)nc(N4CCOCC4)c3s2)CC1 [Pictilisib] (partner 1 µM)
Method in brief: as §1

[3] = compound: C(C(=O)C(=O)O)Br [Bromopyruvate] + C[C@@H](Oc1cc(-c2cnn(C3CCNCC3)c2)cnc1N)c1c(Cl)ccc(F)c1Cl [Crizotinib] (partner 1 µM)
Method in brief: as §1

[4] = compound: C(C(=O)C(=O)O)Br [Bromopyruvate] + C[C@]1(O)C[C@@H](c2nc(-c3ccc4ccc(-c5ccccc5)nc4c3)c3c(N)nccn32)C1 [Linsitinib] (partner 1 µM)
Method in brief: as §1

Cell Line | relative viability ([1]; first compound 1 µM) | relative viability ([1]; first compound 3.162 µM) | relative viability ([1]; first compound 10 µM) | relative viability ([1]; first compound 31.62 µM) | relative viability ([1]; first compound 100 µM) | relative viability ([2]; first compound 0.08 µM) | relative viability ([2]; first compound 0.253 µM) | relative viability ([2]; first compound 0.8 µM) | relative viability ([2]; first compound 2.53 µM) | relative viability ([3]; first compound 1 µM) | relative viability ([3]; first compound 3.162 µM) | relative viability ([3]; first compound 10 µM) | relative viability ([3]; first compound 31.62 µM) | relative viability ([3]; first compound 100 µM) | relative viability ([4]; first compound 1 µM) | relative viability ([4]; first compound 3.162 µM) | relative viability ([4]; first compound 10 µM) | relative viability ([4]; first compound 31.62 µM) | relative viability ([4]; first compound 100 µM)
NCI-H650 | 1.04 | 1.03 | 1.16 | 1.01 | 0.948 | 0.726 | 0.671 | 0.951 | 0.768 | 0.7 | 0.721 | 0.678 | 0.634 | 0.711 | 0.756 | 0.976 | 0.871 | 0.921 | 1.03
NCI-H2085 | 0.865 | 1.06 | 0.964 | 0.779 | 0.465 | 0.445 | 0.461 | 0.442 | 0.39 | 0.823 | 0.984 | 0.874 | 0.778 | 0.797 | 0.984 | 1.04 | 0.864 | 0.876 | 0.639
NCI-H2347 | 0.925 | 1.01 | 1.22 | 0.721 | 0.982 | 0.735 | 0.728 | 0.876 | 0.632 | 0.753 | 0.602 | 0.951 | 0.595 | 0.684 | 0.995 | 0.989 | 1.21 | 0.756 | 1.08
NCI-H1944 | 0.954 | 0.83 | 1.03 | 0.874 | 0.913 | 0.4 | 0.296 | 0.334 | 0.327 | 1.08 | 1.09 | 1.12 | 1.07 | 1.14 | 1.27 | 1.31 | 1.19 | 1.12 | 1.22
NCI-H596 | 0.86 | 0.946 | 1.02 | 0.685 | 0.232 | 0.409 | 0.623 | 0.404 | 0.475 | 0.98 | 1 | 1.07 | 0.952 | 1.17 | 0.998 | 0.991 | 1.18 | 1.03 | 1.19
A549 | 0.949 | 0.935 | 1.07 | 0.989 | 1.06 | 0.546 | 0.483 | 0.617 | 0.357 | 0.731 | 0.806 | 0.858 | 0.754 | 0.736 |  | 0.607 | 0.754 | 0.687 | 0.696
NCI-H520 | 0.83 | 0.805 | 0.646 | 0.859 | 0.895 | 0.516 | 0.254 | 0.281 | 0.335 | 0.716 | 0.707 | 0.737 | 0.685 | 0.673 | 1.06 | 1.09 | 1.11 | 0.961 | 0.893
EKVX | 0.83 | 0.779 | 0.929 | 0.819 | 1.34 | 0.456 | 0.366 | 0.434 | 0.455 | 0.917 | 1.1 | 1.08 | 1.03 | 0.996 | 0.905 | 1.02 | 1.11 | 0.965 | 1.13
NCI-H358 | 0.764 | 0.71 | 0.761 | 0.598 | 0.653 | 0.385 | 0.361 | 0.301 | 0.303 | 0.681 | 0.702 | 0.521 | 0.604 | 0.64 | 0.748 | 0.77 | 0.81 | 0.62 | 0.903
